This passage reports half-life and IC50 results from patent publication US7915448B2, “Substituted sulfonylaminoarylmethyl cyclopropanecarboxamide as VR1 receptor antagonists” (Pfizer Inc., priority 2005, dated 2011).

The nature of data set [1]: Half-life in Human Liver Microsomes (HLM). To be noted: human, human liver microsomes (HL101), pH 7.4.
Data set [2] addresses T1, human VR1 receptors (Homo sapiens, UniProt Q8NER1).
T1 construct: host or cells: cells highly expressing human VR1; cell type not specified
Description: Human VR1 antagonist assay (Ca2+ imaging). To be noted: cells expressing human VR1, fura-2 Ca2+ imaging, FDSS 6000; capsaicin (300 nM) or acid (pH5.8) stimulation, table does not say which. It is filed as cell-based. The text has this: Human VR1 Antagonist Assay
VR1 antagonistic activity can be determined by the Ca^2+ imaging assay using human VR1 highly expressing cells. The cells that highly express human VR1 receptors are obtainable from several different conventional methods. The one standard method is cloning from human Dorsal Root Ganglion (DRG) or kidney according to the methods such as described in the journal article; Nature, 389, pp 816-824, 1997. Alternatively VR1 receptors highly expressing human keratinocytes are also known and published in the journal article (Biochemical and Biophysical Research Communications, 291, pp 124-129, 2002). […] Further more, the method to up regulate human VR1 gene, which is usually a silent gene or don't produce detectable level of VR1 receptors, is also available to obtain propriety cells. Such genetic modification method was described in detail; Nat. Biotechnol., 19, pp 440-445, 2001.
The cells that express human VR1 receptors were maintained in culture flask at 37° C. in an environment containing 5% CO2 until use in the assay. The intracellular Ca^2+ imaging assay to determine VR1 antagonistic activities were done by following procedures.
The culture medium was removed from the flask and fura-2/AM fluorescent calcium indicator was added to the flask at a concentration of 5 μM in the medium. The flask was placed in CO2 incubator and incubated for 1 hour. Then the cells expressing the human VR1 receptors were detached from the flask follow by washing with phosphate buffer saline, PBS(−) and re-suspended in assay buffer. The 80 μl of aliquot of cell suspension (3.75×10^5 cells/ml) was added to the assay plate and the cells were spun down by centrifuge (950 rpm, 20° C., 3 minutes).
Capsaicin Stimulation Assay:
The capsaicin-induced changes in the intracellular calcium concentration were monitored using FDSS 6000 (Hamamatsu Photonics, Japan), a fluorometric imaging system. The cell suspension in Krebs-Ringer HEPES (KRH) buffer (115 mM NaCl, 5.4 mM KCl, 1 mM MgSO4, 1.8 mM CaCl2, 11 mM D-Glucose, 25 mM HEPES, 0.96 mM Na2HPO4, pH 7.3) were pre-incubated with varying concentrations of the test compounds or KRH buffer (buffer control) for 15 minutes at room temperature under the dark condition. Then capsaicin solution, which gives 300 nM in assay mixture, was automatically added to the assay plate by the FDSS 6000.
The Acid-induced changes in the intracellular calcium concentration were monitored using FDSS 6000 (Hamamatsu Photonics, Japan), a fluorometric imaging system. The cell suspension in resting buffer (HBSS supplemented with 10 mM HEPES, pH 7.4) were pre-incubated with varying concentrations of the test compounds or resting buffer (buffer control) for 15 minutes at room temperature under the dark condition. The cells were automatically added the stimulating solution (HBSS supplemented with MES, final assay buffer pH5.8) by the FDSS 6000.
Determination of Antagonist Activity
The monitoring of the changes in the fluorescence signals (λex=340 nm/380 nm, λem=510-520 nm) was initiated at 1 minute prior to the addition of capsaicin solution or acidic buffer and continued for 5 minute.

T1 sequence (Q8NER1 whole entry): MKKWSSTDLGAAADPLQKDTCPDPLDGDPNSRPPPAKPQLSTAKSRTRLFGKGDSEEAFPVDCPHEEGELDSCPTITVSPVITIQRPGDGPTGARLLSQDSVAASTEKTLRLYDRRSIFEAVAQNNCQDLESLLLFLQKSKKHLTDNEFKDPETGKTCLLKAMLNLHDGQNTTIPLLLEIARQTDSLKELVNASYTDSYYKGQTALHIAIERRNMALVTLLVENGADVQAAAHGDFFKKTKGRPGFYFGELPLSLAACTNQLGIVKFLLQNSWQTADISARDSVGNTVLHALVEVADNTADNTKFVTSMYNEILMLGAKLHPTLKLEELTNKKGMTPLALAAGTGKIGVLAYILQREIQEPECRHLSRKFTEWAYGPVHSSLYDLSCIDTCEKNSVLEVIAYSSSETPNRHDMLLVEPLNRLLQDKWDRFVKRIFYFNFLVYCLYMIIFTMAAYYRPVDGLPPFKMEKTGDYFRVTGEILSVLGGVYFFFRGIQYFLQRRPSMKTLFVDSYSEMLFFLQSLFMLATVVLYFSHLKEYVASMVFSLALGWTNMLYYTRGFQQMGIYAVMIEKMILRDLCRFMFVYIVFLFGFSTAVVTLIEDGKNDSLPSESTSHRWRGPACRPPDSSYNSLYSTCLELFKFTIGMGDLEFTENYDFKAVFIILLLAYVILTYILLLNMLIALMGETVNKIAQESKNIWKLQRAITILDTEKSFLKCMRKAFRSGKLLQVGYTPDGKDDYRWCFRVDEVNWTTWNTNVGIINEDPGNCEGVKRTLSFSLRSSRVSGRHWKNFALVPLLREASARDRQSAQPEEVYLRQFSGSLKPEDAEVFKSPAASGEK

Consider `Cc1cc([C@@H](C)NC(=O)C2CC2(C)c2ccc(SC(F)(F)F)cc2)ccc1NS(C)(=O)=O` (stereo partly drawn) [Example 24, 2-Methyl-N-((1R)-1-{3-methyl-4-[(methylsulfonyl)amino]phenyl}ethyl)-2-{4-[(trifluoromethyl)thio]phenyl}cyclopropanecarboxamide], for which, in data set [1], the half-life (in general, the time needed for the level to fall by half in the phase considered) at 1 μM was determined as 23 min. Moreover, the half-inhibitory concentration (IC50) – broadly, the concentration that gives 50% inhibition – in data set [2] came out at 19.3 nM.
With `C[C@@H](NC(=O)C1CC1(C)c1ccc(SC(F)(F)F)cc1)c1ccc(NS(C)(=O)=O)c(CO)c1` (stereo partly shown) [Example 25], in data set [1], the half-life at 1 μM was 30 min. For the same compound, it took 26.6 nM to reach half-maximal inhibition in data set [2] (IC50).
The matching figures for `Cc1cc([C@@H](C)NC(=O)C2CC2(C)c2ccc(S(=O)(=O)C(F)(F)F)cc2)ccc1NS(C)(=O)=O` (stereo partly drawn) [Example 26, 2-Methyl-N-((1R)-1-{3-methyl-4-[(methylsulfonyl)amino]phenyl}ethyl)-2-{4-[(trifluoromethyl)sulfonyl]phenyl}cyclopropanecarboxamide]: 38 min and 78.3 nM.
The matching figures for `Cc1cc([C@@H](C)NC(=O)C2CC2(C)c2ccc(C(C)(C)C(F)(F)F)cc2)ccc1NS(C)(=O)=O` (stereo partly shown) [Example 27]: 25 min and 7.83 nM.
For `CC[C@@H](NC(=O)[C@H]1C[C@]1(C)c1ccc(C(F)(F)F)cc1)c1ccc(NS(C)(=O)=O)cc1` [Example 31, (1S,2S)-2-Methyl-N-((1R)-1-{4-[(methylsulfonyl)amino]phenyl}propyl)-2-[4-(trifluoromethyl)phenyl]cyclopropanecarboxamide], the half-life at 1 μM in data set [1] was above 120 min. Further, the 50% inhibitory concentration (IC50) in data set [2] turned out to be 192 nM.
The matching figures for `CCc1cc([C@@H](C)NC(=O)[C@H]2C[C@]2(C)c2ccc(C(F)(F)F)cc2)ccc1NS(C)(=O)=O` [Example 32, (1S,2S)-N-((1R)-1-{3-Ethyl-4-[(methylsulfonyl)amino]phenyl}ethyl)-2-methyl-2-[4-(trifluoromethyl)phenyl]cyclopropanecarboxamide]: 10.8 min and 0.934 nM.
In the same order, the values of `CCc1cc([C@@H](C)NC(=O)[C@H]2C[C@@H]2c2ccc(C(F)(F)F)cc2)ccc1NS(C)(=O)=O` [Example 33, N-((1R)-1-{3-Ethyl-4-[(methylsulfonyl)amino]phenyl}ethyl)-2-[4-(trifluoromethyl)phenyl]cyclopropanecarboxamide] are 39 min and 56.2 nM.
In the same order, the values of `CC[C@@H](NC(=O)[C@H]1C[C@]1(C)c1ccc(C(F)(F)F)cc1)c1ccc(NS(C)(=O)=O)c(C)c1` [Example 34, (1S,2S)-2-Methyl-N-((1R)-1-{3-methyl-4-[(methylsulfonyl)amino]phenyl}propyl)-2-[4-(trifluoromethyl)phenyl]cyclopropanecarboxamide] are above 120 min and 4.72 nM.
As to `Cc1cc([C@@H](C)NC(=O)[C@H]2C[C@]2(C)c2ccc(C(C)(C)C(F)(F)F)cc2)ncc1NS(C)(=O)=O` [Example 37, 2-Methyl-N-((1R)-1-{4-methyl-5-[(methylsulfonyl)amino]pyridin-2-yl}ethyl)-2-[4-(2,2,2-trifluoro-1,1-dimethylethyl)phenyl]cyclopropanecarboxamide], in data set [1], the half-life at 1 μM came to 41 min. In data set [2], this compound had an IC50 of 197 nM.
The matching figures for `C[C@@H](NC(=O)[C@H]1C[C@@H]1c1cc(F)c(C(C)(C)C)c(F)c1)c1ccc(NS(C)(=O)=O)cc1` [Example 38, 2-[4-tert-Butyl-3,5-difluorophenyl]-N-((1R)-1-{4-[(methylsulfonyl)amino]phenyl}ethyl)cyclopropanecarboxamide]: 40 min and 70.9 nM.
The matching figures for `Cc1cc([C@@H](C)NC(=O)[C@H]2C[C@@H]2c2cc(F)c(C(C)(C)C)c(F)c2)ccc1NS(C)(=O)=O` [Example 39, 2-(4-tert-Butyl-3,5-difluorophenyl)-N-((1R)-1-{3-methyl-4-[(methylsulfonyl)amino]phenyl}ethyl)cyclopropanecarboxamide]: 15 min and 9.12 nM.
In the same order, the values of `C[C@@H](NC(=O)[C@H]1C[C@@H]1c1cc(F)c(C(C)(C)C)c(F)c1)c1ccc(NS(C)(=O)=O)c(F)c1` [Example 40, 2-(4-tert-Butyl-3,5-difluorophenyl)-N-((1R)-1-{3-fluoro-4-[(methylsulfonyl)amino]phenyl}ethyl)cyclopropanecarboxamide] are 35 min and 32.5 nM.
Take `Cc1cc([C@@H](C)NC(=O)[C@H]2C[C@]2(C)c2ccc(C(F)(F)F)cc2)c(F)cc1NS(C)(=O)=O` [Example 41, (1S,2S)-N-((1R)-1-{2-Fluoro-5-methyl-4-[(methylsulfonyl)amino]phenyl}ethyl)-2-methyl-2-[4-(trifluoromethyl)phenyl]cyclopropanecarboxamide]: the half-life at 1 μM in data set [1] turned out to be 21 min. In data set [2], this compound came in with a half-inhibitory concentration (IC50) of 0.234 nM.
The matching figures for `Cc1cc([C@@H](C)NC(=O)[C@H]2C[C@]2(C)c2ccc(C(F)(F)F)c(F)c2)c(F)cc1NS(C)(=O)=O` [Example 42, N-((1R)-1-{2-Fluoro-5-methyl-4-[(methylsulfonyl)amino]phenyl}ethyl)-2-[3-fluoro-4-(trifluoromethyl)phenyl]-2-methylcyclopropanecarboxamide]: 19.7 min and 0.713 nM.
The compound `C[C@@H](NC(=O)[C@H]1C[C@]1(C)c1cc(F)c(C(C)(C)C)c(F)c1)c1ccc(NS(C)(=O)=O)cc1` [Example 43, 2-(4-tert-Butyl-3,5-difluorophenyl)-2-methyl-N-((1R)-1-{4-[(methylsulfonyl)amino]phenyl}ethyl)cyclopropanecarboxamide] showed a half-life at 1 μM in data set [1] of 41 min. The IC50 in data set [2] is 20.7 nM.
The matching figures for `Cc1cc([C@@H](C)NC(=O)[C@H]2C[C@]2(C)c2cc(F)c(C(C)(C)C)c(F)c2)ccc1NS(C)(=O)=O` [Example 44, 2-(4-tert-Butyl-3,5-difluorophenyl)-2-methyl-N-((1R)-1-{3-methyl-4-[(methylsulfonyl)amino]phenyl}ethyl)cyclopropanecarboxamide]: 29 min and 2 nM.
The matching figures for `C[C@@H](NC(=O)[C@H]1C[C@]1(C)c1cc(F)c(C(C)(C)C)c(F)c1)c1ccc(NS(C)(=O)=O)c(F)c1` [Example 45, 2-(4-tert-Butyl-3,5-difluorophenyl)-N-((1R)-1-{3-fluoro-4-[(methylsulfonyl)amino]phenyl}ethyl)-2-methylcyclopropanecarboxamide]: 29 min and 5.84 nM.
The matching figures for `Cc1cc([C@@H](C)NC(=O)[C@H]2C[C@@H]2c2ccc(C(F)(F)F)nc2N2CCCC2)ccc1NS(C)(=O)=O` [Example 46, N-((1R)-1-{3-Methyl-4-[(methylsulfonyl)amino]phenyl}ethyl)-2-[2-pyrrolidin-1-yl-6-(trifluoromethyl)pyridin-3-yl]cyclopropanecarboxamide]: 23 min and 12.6 nM.
`C[C@@H](NC(=O)[C@H]1C[C@@H]1c1ccc(C(F)(F)F)nc1N1CCCC1)c1ccc(NS(C)(=O)=O)c(CO)c1` [Example 47, N-((1R)-1-{3-(Hydroxymethyl)-4-[(methylsulfonyl)amino]phenyl}ethyl)-2-[2-pyrrolidin-1-yl-6-(trifluoromethyl)pyridin-3-yl]cyclopropanecarboxamide] registered a half-life at 1 μM in data set [1] of 11 min. Moreover, in data set [2], 7.64 nM corresponded to half-maximal inhibition (IC50).
In the same order, the values of `C[C@@H](NC(=O)[C@H]1C[C@@H]1c1ccc(C(C)(C)C(F)(F)F)cc1)c1ccc(NS(C)(=O)=O)c(CO)c1` [Example 48, N-((1R)-1-{3-(Hydroxymethyl)-4-[(methylsulfonyl)amino]phenyl}ethyl)-2-[4-(2,2,2-trifluoro-1,1-dimethylethyl)phenyl]cyclopropanecarboxamide] are 21 min and 203 nM.
